We go through one molecule from patent US20080069809A1, “Compositions and methods for the diagnosis and treatment of cancer” (priority 2006, published 2008).

One data set has as its system KG1a. Description: Differentiation (CD11b expression) in KG1a cells. The class given is cell-based. As for the experimental part:
(§1) The myeloid leukemic cell lines HL60, NB60, NB4, U937, K562 and KG1a were all grown in RPMI 1640 medium (Life Technologies, Paisley, United Kingdom) supplemented with 10% v/v fetal calf serum (Sear Laboratories International Crawley, United Kingdom), 100 U/mL penicillin, and 100 μg/mL streptomycin (Sigma Aldrich, Poole, United Kingdom) at 37° C. and 5% v/v CO2. AML blasts were isolated from patient bone marrow aspirates and peripheral blood of eight patients at diagnosis or relapse. Patients were not receiving AML therapy at time of sampling. Blasts were isolated by Ficoll density centrifugation and were cultured in serum-free insulin transferrin selenium-positive (ITS+) medium (Life Technologies) containing 300 ng/mL stem cell factor (SCF) and 10 ng/mL interleukin 3 (IL3; R and D Systems, Abingdon, United Kingdom) and antibiotics. Blast purity ranged from 80% to 95%, as assessed by expression of CD34. Normal myeloblasts were isolated from cord blood or adult mobilized peripheral blood. Briefly, CD34^+ cells were indirectly selected from the mononuclear cell preparations using antibody-coated magnetic beads (Miltenyi Biotec, United Kingdom).
(§2) Cell differentiation was determined by staining of cells with anti-CD11b antibody as a general early marker of myeloid differentiation. In studies with HL60 cells, PEP005-treated and 20 nM phorbol myristate (PMA)-treated (Sigma Aldrich) cells were also assessed for their ability to phagocytose complement-coated yeast, a marker of a fully differentiated myeloid cell, as previously described (Toksoz et al, Leukemia Res 6:491-498, 1982). The ingestion of three or more yeasts was taken as a positive result. In normal cord blood or adult bone marrow myeloblasts, loss of CD34 was taken as a marker of differentiation. Isotype-matched controls were used and all antibodies were from DAKO (Cambridge, United Kingdom). […] Images were captured with a SPOT2 cameria (Diagnostic Instructions, Sterling Heights, Mich.) and analyzed using Image-Pro 4.0 software (Media Cybernetics, Silver Spring, Md.).

The next data set has as its system primary AML blasts. Description: Apoptosis in primary AML blasts from patient bone marrow. It is filed as cell-based, human. As for the experimental part:
as §1
(§3) To determine the effects of ingenol-3-angelate (PEP005), cells were incubated for up to 5 days with medium alone or PEP005 at a range of concentrations from 0.2 nM to 20 μM. […] Apoptosis and differentiation were assessed after 1 to 5 days.
as §2, with “1982).” for “1982). The ingestion of three or more yeasts was taken as a positive result. In normal cord blood or adult bone marrow myeloblasts, loss of CD34 was taken as a marker of differentiation. Isotype-matched controls were used and all antibodies were from DAKO (Cambridge, United Kingdom).”

Another data set has as its system K562. Description: Differentiation (CD11b expression) in K562 cells. The class given is cell-based. As for the experimental part: (§4) The myeloid leukemic cell lines HL60, NB60, NB4, U937, K562 and KG1a were all grown in RPMI 1640 medium (Life Technologies, Paisley, United Kingdom) supplemented with 10% v/v fetal calf serum (Sear Laboratories International Crawley, United Kingdom), 100 U/mL penicillin, and 100 μg/mL streptomycin (Sigma Aldrich, Poole, United Kingdom) at 37° C. and 5% v/v CO2. AML blasts were isolated from patient bone marrow aspirates and peripheral blood of eight patients at diagnosis or relapse. Patients were not receiving AML therapy at time of sampling. […] Blast purity ranged from 80% to 95%, as assessed by expression of CD34. […]
as §2, with “1982).” for “1982). The ingestion of three or more yeasts was taken as a positive result. In normal cord blood or adult bone marrow myeloblasts, loss of CD34 was taken as a marker of differentiation. Isotype-matched controls were used and all antibodies were from DAKO (Cambridge, United Kingdom).”

Data set [1] concerns Normal CD34+ myeloblasts. Description: Apoptosis / cytotoxicity in normal CD34+ myeloblasts. It is filed as cell-based, human. The procedure:
as §4, §3
Cell differentiation was determined by staining of cells with anti-CD11b antibody as a general early marker of myeloid differentiation. In studies with HL60 cells, PEP005-treated and 20 nM phorbol myristate (PMA)-treated (Sigma Aldrich) cells were also assessed for their ability to phagocytose complement-coated yeast, a marker of a fully differentiated myeloid cell, as previously described (Toksoz et al, Leukemia Res 6:491-498, 1982). […]

The test system of data set [2] is Normal CD34+ myeloblasts. Description: Differentiation of normal CD34+ myeloblasts (loss of CD34, morphology). The class given is cell-based, human. To be noted: doses of 20 nM to 2.0 μM PEP005. As for the experimental part:
as §4
(§5) Cell differentiation was determined by staining of cells with anti-CD11b antibody as a general early marker of myeloid differentiation. In studies with HL60 cells, PEP005-treated and 20 nM phorbol myristate (PMA)-treated (Sigma Aldrich) cells were also assessed for their ability to phagocytose complement-coated yeast, a marker of a fully differentiated myeloid cell, as previously described (Toksoz et al, Leukemia Res 6:491-498, 1982). […] Images were captured with a SPOT2 cameria (Diagnostic Instructions, Sterling Heights, Mich.) and analyzed using Image-Pro 4.0 software (Media Cybernetics, Silver Spring, Md.).

For another data set, the system named is NB4. Description: Differentiation (CD11b expression) in NB4 cells. It is filed as cell-based. The following applies: treated 5 days. The procedure:
as §4, §5

The next data set has as its system HL60. Description: Differentiation (CD11b expression) in HL60 cells. The class given is cell-based. The procedure:
as §4, §5

A further data set has as its system caspase-3. Nature of the data set: Caspase-3 phosphorylation in 32PO4-labeled HL60 cells. The class given is cell-based. The following applies: 20 nM PEP005. The procedure:
To determine if PEP005 induced caspase-3 phosphorylation, HL60 cells were incubated with 1.5×10^7 Bq/mL ^32PO4 (Amersham Pharmacia) in phosphate-free medium for 3 hours prior to addition of 20 nM PEP005 or PEP005 and 5 μM rottlerin (Calbiochem, Nottingham, United Kingdom). Cells were then lysed and caspase-3 was immunoprecipitated with an anti-caspase-3 antibody (BD Pharmingen, Oxford, United Kingdom) or an irrelevant isotype-matched control antibody (DAKO) and the immunoprecipitate was isolated using an anti-mouse immunoglobulin G (IgG) antibody (DAKO) and protein G-coated magnetic beads (microbeads; Miltenyi Biotech). The isolate was taken up in SDS sample buffer and run on a 10% w/v SDS-polyacrylamide gel electrophoresis (PAGE) gel and the labeled proteins were visualized using a phosphorimager.

Turning to `C/C=C(/C)C(=O)O[C@H]1C(C)=C[C@]23C(=O)[C@@H](C=C(CO)[C@@H](O)[C@]12O)[C@H]1[C@@H](C[C@H]3C)C1(C)C` [PEP005, ingenol-3-angelate], the differentiation response result in the data set on KG1a (agent alone) is “did not respond”. Moreover, the results for the CD11b expression result with KG1a (even at 20 μM PEP005) and in the data set with K562 were “did not enter apoptosis or show CD11b expression” and “did not increase expression of CD11b”, respectively. In addition, in the data set on primary AML blasts (after 48 hours of treatment with 20 nM PEP005), the “viable blast cells / morphology” value is listed as “few viable AML blast cells remained”. Moreover, the “patient AML blast samples induced to enter apoptosis” value in the data set with primary AML blasts (blasts of eight AML patients) is recorded as “seven of these were induced to enter apoptosis”. In the data set on primary AML blasts (seven responsive AML samples), the “lowest PEP005 concentration inducing apoptosis” value was found to be 2 nM. Also, the induction of apoptosis result with Normal CD34+ myeloblasts [1] (concentrations of PEP005 effective against cell lines and AML blast cells, cord blood and adult marrow myeloblasts) is reported as “Induction of apoptosis was not seen”. For the same molecule, the cytotoxicity result in the data set on Normal CD34+ myeloblasts [1] (even at 200 nM PEP005) is listed as “cytotoxicity did not occur”. In the data set with Normal CD34+ myeloblasts [2], the “differentiation (loss of CD34, promyelocyte- and myelocyte-like morphologies)” value is recorded as “induced to differentiate”. Moreover, the “PEP005 concentration with optimal effect, CD11b expression” value in the data set on NB4 and with HL60 (treated 5 days) was 20 nM each time. Moreover, in the data set with HL60 (10 nM ATRA and 20 nM PEP005 in combination, 5 days), the “synergy with ATRA in CD11b differentiation response” value is on record as “able to synergize with ATRA”. Further, the “induction of caspase-3 phosphorylation” value in the data set with caspase-3 is on record as “able to induce caspase-3 phosphorylation”.
